Results from patent US11830582B2, “Methods of designing novel antibody mimetics for use in detecting antigens and as therapeutic agents” (UNIVERSITY OF MIAMI, priority 2018, dated 2023).

Tests used:
Assay type in all cases: binding
intact ZIKV particles [1] = experiment: Direct ELISA vs intact ZIKV particles; conditions: for LOD: LOD=SB+3×SDB, interpolated from calibration curve; for FPLR maximum / FPLR minimum: delta absorbance 450 nm; for Long-term stability: dose-response performance of the assay; for FPLR C50 / FPLR slope: four-parameter logistic fit; for FPLR Dynamic Range: optimized peptide concentration of Table 5 (0.5-20 μM; 4G2 1 μg/ml); for dynamic range of dose-response curve (orders of magnitude): in words
Description: Before biotin functionalization, peptides stock solution was reduced using trialkylphosphine (TCEP) from ThermoFisher Scientific (www.thermofisher.com) and after 1 h the gel was removed using TCEP gel spin separation columns (ThermoFisher Scientific). Then, 2-fold molar excess of EZ-Link™ Maleimide-PEG2-Biotin (ThermoFisher Scientific) was added to purified peptide solution and incubated for 1 h. […] Therefore, no further separation was carried out.
(§1) To optimize all parameters of the direct ELISA protocol, Pierce 96-Well Polystyrene Plates, (ThermoFisher Scientific) were coated overnight at 4° C. with different concentrations of intact virus particles (ZIKV or DENV). The intact virus particles were diluted using 100 mM NaHCO3, pH 9.6, and aliquots of 100 μL were dispensed into each well of the plate using a multichannel pipette. This buffer pH assured a strong hydrophobic binding interaction between polystyrene and virus particles.
(§2) Intact particles both ZIKV and DENV were provided by Dr. Watkins group (University of Miami, Dep. of Pathology). The samples were controlled and counted by focus forming assay and RT-PCR, the details were reported in a previous work (Magnani et al., 2017). The Intact particles of ZIKV were inactivated using gamma irradiation. Assay biohazardous steps were carried out according to standard safety procedures.
(§3) After coating the plates overnight, the intact virus particles were removed by washing five times with the washing buffer (PBST) 10 mM PBS pH 7.4, 0.1% Tween-20, using an automated plate washer (MultiWash+, Molecular Devices, Sunnyvale, Calif.). Then, the plates were blocked with 200 μL of blocking buffers while shaking at 300 rpm at room temperature. The blocking buffers used were: Pierce™ Protein-Free (PBS) Blocking Buffer (PF), Blocker™ BLOTTO in TBS, SuperBlock™ Blocking Buffer, Blocker™ BSA (1×) in PBS. All blocking buffer were from ThermoFisher Scientific.
(§4) After 2 h the blocking buffers were removed using the same washing procedure mentioned above. 100 μL-aliquots of several dilutions of peptides biotinylated in 10 mM PBS pH 7.4 were placed in each well and incubated for 2 h while shaking at 300 rpm at room temperature. After the incubation, the unreacted peptides were removed by using the plate washer with the same settings. Then, 100 μL-aliquots of streptavidin-HRP (ThermoFisher Scientific) at a concentration of 20 ng/mL were added into each well and incubated for 30 min at room temperature without shaking. After the incubation, excess streptavidin-HRP was removed and the wells were washed with the plate washer five times using the washing buffer. Finally, 100 μL-aliquots of the Ultra TMB-ELISA Substrate Solution (ThermoFisher Scientific) were added and after 10 min the reaction was stopped by adding 100 μL aliquots of the TMB stop solution (SeraCare). The emission (450 nm) was read using a microplate reader (Clariostar Optima; BMG Labtech, Ortenberg, Germany).
The corresponding blank signals in triplicates were obtained by using all reagents without peptides. The blank signal was then subtracted to the average absorbance values for triplicate wells of each test.
The eight clamp peptides and the four mono-arm peptides selected, were tested vs intact ZIKV particles by using a direct ELISA. The peptides were biotinylated by using the maleimide-PEG2-biotin reagent that reacts with the sulfhydryl group of the cysteine efficiently and specifically by forming a stable thioether bond. The antibody 4G2 hybridoma mouse IgG2a was used as the reference and employed in combination with an anti-mouse IgG conjugated to HRP.
All analytical parameters involved in the development of ELISA were optimized by using 96-well plates coated with triplicate 10-fold serial dilutions of intact ZIKV particles.
Thus, the peptide concentrations reported in Table 5 were used to estimate the dynamic range and the LOD of the assay by using 10-fold serial dilutions of intact ZIKV particles from 10^^1 to 10^^8 copies/mL. […]

[2] = test system: intact DENV particles (DENV-1, -2 and -3); experiment: Cross-reactivity direct ELISA vs DENV serotypes
Description: as §1, §2, §3, §4
The cross-reactivity among Flaviviruses is a key parameter to be tested for this assay. […]

intact ZIKV particles [3] = experiment: Direct ELISA matrix effect in urine and serum; conditions: urine 1:1, serum 1:10 diluted; 10^5 and 10^6 copies/mL ZIKV
Description: Usually, the presence of ZIKV in affected bodies is detected in biological fluids. Therefore, the analytical sensitivity of the selected peptides was tested in two biological matrices, namely, urine and serum. The matrix effect was investigated to understand how real biological fluids could modify the binding efficiency of the peptides.
FIG. 4 depicts the ELISA data using solutions of peptides with or without the urine and serum obtained coating clear 96-well plates with 10^^5 and 10^^6 copies/mL of intact ZIKV particles. Urine and serum were 1:1 and 1:10 diluted, respectively, with a concentrated peptide PBS solution (10 mM PBS, pH 7.4) to obtain a peptide final concentration of 0.5 μM for C3 and C6, 5 μM for C7 and 20 μM for mono-arm peptides (P2 and X1).

[4] = all DENV serotypes, 10^5 copies/mL coating

Substance | LOD (intact ZIKV particles [1]) | FPLR maximum (intact ZIKV particles [1]) | FPLR minimum (intact ZIKV particles [1]) | Long-term stability (intact ZIKV particles [1]) | FPLR C50 (intact ZIKV particles [1]) | FPLR slope (intact ZIKV particles [1]) | FPLR Dynamic Range (intact ZIKV particles [1]) | dynamic range of dose-response curve (orders of magnitude) (intact ZIKV particles [1]) | signal decrease DENV vs ZIKV [2, 4] | ELISA performance in urine and serum (intact ZIKV particles [3]) | signal decrease DENV vs ZIKV ([2]; DENV-2, 10^5 copies/mL coating) | signal decrease DENV vs ZIKV ([2]; DENV-3, 10^5 copies/mL coating)
C-KTDAYS (CKTDAYS; X2) [mono-arm hexapeptide with N-terminal cysteine] | 5.8 log[ZIKV], copies/mL | 0.91 ΔA | 0.01 ΔA | >1 Month | 6.1 log[ZIKV], copies/mL | 27.7 | 6-8 log[ZIKV], copies/mL | – | – | – | – | –
C7: clamp peptide MDSPIK (22) - bridge GPGCCGPG (32) - KRNATP (26) (MDSPIKGPGCCGPGKRNATP; C7 Binds to Active Site 2; Bridge peptide; C3 Binds to Active Site 1) | 3.7 log[ZIKV], copies/mL | 0.95 ΔA | 0.01 ΔA | >1 Month | 5.8 log[ZIKV], copies/mL | 5.3 | 4-7 log[ZIKV], copies/mL | three-order of magnitude | around 70% | best performance among the three clamp peptides | – | –
C4: clamp peptide WPWIGT (18) - bridge GPGCCGPG (32) - KTDAYS (27) (WPWIGTGPGCCGPGKTDAYS; C3 Binds to Active Site 2; Bridge peptide; C4 Binds to Active Site 1) | 5.7 log[ZIKV], copies/mL | 0.40 ΔA | 0.02 ΔA | >1 Month | 6.3 log[ZIKV], copies/mL | 32.8 | 6-7 log[ZIKV], copies/mL | – | – | – | – | –
C8: clamp peptide MDSPIK (22) - bridge GPGCCGPG (32) - KTDAYS (27) (MDSPIKGPGCCGPGKTDAYS; C7 Binds to Active Site 2; Bridge peptide; C4 Binds to Active Site 1) | 4.7 log[ZIKV], copies/mL | 0.82 ΔA | 0.03 ΔA | >1 Month | 6.2 log[ZIKV], copies/mL | 33.9 | 5-7 log[ZIKV], copies/mL | – | – | – | – | –
C-SWPGQ (CSWPGQ; P1) [mono-arm pentapeptide with N-terminal cysteine] | 6.8 log[ZIKV], copies/mL | – | – | >1 Month | – | – | 7-8 log[ZIKV], copies/mL | one order of magnitude | – | – | – | –
C3: clamp peptide WPWIGT (18) - bridge GPGCCGPG (32) - KRNATP (26) (WPWIGTGPGCCGPGKRNATP; C3 Binds to Active Site 2; Bridge peptide; C3 Binds to Active Site 1) | 3.5 log[ZIKV], copies/mL | 0.67 ΔA | 0.05 ΔA | >1 Month | 5.3 log[ZIKV], copies/mL | 8.7 | 4-7 log[ZIKV], copies/mL | three-order of magnitude | around 70% | better performance in urine than serum | – | –
C-LRGHA (CLRGHA; P2) [mono-arm pentapeptide with N-terminal cysteine] | 4.5 log[ZIKV], copies/mL | 0.94 ΔA | 0.04 ΔA | >1 Month | 6.2 log[ZIKV], copies/mL | 19.9 | 5-7 log[ZIKV], copies/mL | – | – | – | – | –
C2: clamp peptide WPHTQ (16) - bridge GPGCCGPG (32) - LRGHA (25) (WPHTQGPGCCGPGLRGHA; C1 Binds to Active Site 2; Bridge peptide; C2 Binds to Active Site 1) | 4.5 log[ZIKV], copies/mL | 0.55 ΔA | 0.05 ΔA | >1 Month | 6.2 log[ZIKV], copies/mL | 25.4 | 5-7 log[ZIKV], copies/mL | – | – | – | – | –
C-KRNATP (CKRNATP; X1) [mono-arm hexapeptide with N-terminal cysteine] | 4.8 log[ZIKV], copies/mL | 0.98 ΔA | 0.03 ΔA | >1 Month | 6.1 log[ZIKV], copies/mL | 20.8 | 5-7 log[ZIKV], copies/mL | – | – | – | – | –
C6: clamp peptide AGRRP (20) - bridge GPGCCGPG (32) - LRGHA (25) (AGRRPGPGCCGPGLRGHA; C5 Binds to Active Site 2; Bridge peptide; C2 Binds to Active Site 1) | 3.5 log[ZIKV], copies/mL | 0.53 ΔA | 0.05 ΔA | >1 Month | 5.2 log[ZIKV], copies/mL | 10.1 | 4-7 log[ZIKV], copies/mL | three-order of magnitude | – | strong decrease in the signal | 45% | 55%
C5: clamp peptide AGRRP (20) - bridge GPGCCGPG (32) - SWPGQ (24) (AGRRPGPGCCGPGSWPGQ; C5 Binds to Active Site 2; Bridge peptide; C1 Binds to Active Site 1) | 5.8 log[ZIKV], copies/mL | 0.17 ΔA | 0.01 ΔA | >1 Month | 6.4 log[ZIKV], copies/mL | 25.6 | 6-7 log[ZIKV], copies/mL | – | – | – | – | –
